We go through 11 compounds from PMC6274077, “In Vitro Study on Anti-Hepatitis C Virus Activity of Spatholobus suberectus Dunn” (Molecules, 2016).

Read-outs that look alike come from different tables or passages of the source.

A word on the IC50: it is the concentration that gives 50% inhibition.

A short description of data set [1]: Cytotoxicity by methylene blue assay. The data set is classed as cell-based. Particulars: human, Huh-luc/neo-ET cells. The method, then: The cytotoxicity of different herbal extract or components was measured by methylene blue assay. Huh-luc/neo-ET cells were seeded at a density of 7 × 10^3 cells per well in 96-well plate and treated with serial dilution of different herb extracts for 72 h. Cells were fixed and stained with 0.5% methylene blue in 50% ethanol, and then washed with tap water. After air-dry, cells were solubilized with 1% Sarkosyl and cell viability was determined from the extent absorption by spectrophotometric measurements at 595 nm (Spectra Max M5, Molecular Devices).

For data set [2], the system named is HCV genotype 1b (Con1) replicon. Briefly: Anti-HCV luciferase reporter assay on Huh-luc/neo-ET replicon cells. The settings on record: Hepatitis C virus, GETYPE1B, 72 h. For orientation: A reporter such as luciferase makes a cellular process visible.
Data set [3] relates to different subtypes of human and avian influenza viruses. The settings on record: cited from earlier work.
Data set [4] relates to HCV JFH1-GFP chimeric virus. More on the design: method as in PMID 22491814. The settings on record: read-out: EC50, replication of HCV JFH1-GFP chimeric virus; cited from earlier work.
The subject of another data set is J399EM virus. Details: method as in PMID 22491814. Particulars: cited from earlier work.
The next data set relates to HCV entry. Details: method as in PMID 22491814. Particulars: cited from earlier work.
The mark [5] stands for this setting: read-out: Anti-HCV Activity (EC50, 72 h).
[6] abbreviates: read-out: Anti-HCV Activity (EC50).
Where [7] appears, read: read-out: Anti-HCV Activity (EC50), in brackets as mass concentration.

In the case of `Oc1cc(O)c2c(c1)O[C@H](c1ccc(O)c(O)c1)[C@@H](O)C2` [(+)-Catechin], the IC50 at 72 h in data set [1] was above 100 µM. Moreover, the EC50 in data set [2] (setting [5]) was above 100 µM.
Consider `COc1cc(C[C@H]2CO[C@H](c3ccc(O[C@@H]4O[C@H](CO)[C@@H](O)[C@H](O)[C@H]4O)c(OC)c3)[C@H]2CO)ccc1O[C@@H]1O[C@H](CO)[C@@H](O)[C@H](O)[C@H]1O` [Clemastanin B], for which the “inhibitory concentrations against influenza viruses” value in data set [3] is “below 1 mg/mL”.
As to `COC(=O)N[C@H](C(=O)N1CCC[C@H]1c1nc(-c2ccc(-c3ccc(-c4c[nH]c([C@@H]5CCCN5C(=O)[C@@H](NC(=O)OC)C(C)C)n4)cc3)cc2)c[nH]1)C(C)C` [Daclatasvir, daclatasvir], the EC50 in data set [2] (setting [6]) was 8e-06 ± 1e-06 µM; in data set [2] (setting [7]), 0.00591 ng/mL.
In data set [1], `Oc1cc(O)c2c(c1)O[C@H](c1ccc(O)c(O)c1)[C@H](O)C2` [EC, epicatechin] had an IC50 at 72 h above 100 µM. Besides, in data set [2] (setting [5]), the EC50 was above 100 µM.
The compound `O=C(O[C@@H]1Cc2c(O)cc(O)cc2O[C@@H]1c1ccc(O)c(O)c1)c1cc(O)c(O)c(O)c1` [ECG, epicatechin gallate] had an IC50 at 72 h in data set [1] above 100 µM. Also, in data set [2] (setting [5]), the EC50 was 69.8 ± 5.62 µM.
The corresponding values for `Oc1cc(O)c2c(c1)O[C@H](c1cc(O)c(O)c(O)c1)[C@H](O)C2` [EGC, epigallocatechin] are above 100 µM and above 100 µM.
`O=C(O[C@@H]1Cc2c(O)cc(O)cc2O[C@@H]1c1cc(O)c(O)c(O)c1)c1cc(O)c(O)c(O)c1` [EGCG, epigallocatechin gallate] registered an IC50 at 72 h in data set [1] above 100 µM. The EC50 is 17.9 µM in data set [4], 80 µM in the data set with J399EM virus, 25 µM with HCV entry and 68.7 ± 4.51 µM in data set [2] (setting [5]).
`O=C(O)c1cc(O)c(O)c(O)c1` [Gallic acid, gallic acid] displayed an IC50 at 72 h in data set [1] above 100 µM. Also, the EC50 in data set [2] (setting [5]) is above 100 µM.
Consider `COc1ccc2c(O[C@@H]3C[C@H]4C(=O)N[C@]5(C(=O)NS(=O)(=O)C6CC6)C[C@H]5/C=C\CCCCN(C)C(=O)[C@@H]4C3)cc(-c3nc(C(C)C)cs3)nc2c1C` [Simeprevir, simeprevir], for which the EC50 is 0.00127 ± 0.00025 µM in data set [2] (setting [6]) and 42.5 ng/mL in data set [2] (setting [7]).
For `CC(C)OC(=O)[C@H](C)N[P@](=O)(OC[C@H]1O[C@@H](n2ccc(=O)[nH]c2=O)[C@](C)(F)[C@@H]1O)Oc1ccccc1` [Sofosbuvir, sofosbuvir], in that order: 0.0263 ± 0.0055 µM and 13.9 ng/mL.
For `CCC[C@H](NC(=O)[C@@H]1[C@H]2CCC[C@H]2CN1C(=O)[C@@H](NC(=O)[C@@H](NC(=O)c1cnccn1)C1CCCCC1)C(C)(C)C)C(=O)C(=O)NC1CC1` [Telaprevir, telaprevir], in that order: 0.185 ± 0.035 µM and 126 ng/mL.
